Laboratory results taken from article PMC6913697 (Journal of Experimental Botany, 2019).

How the values were obtained:
Assay type in all cases: biochemical
PvCHI1 = molecular target: T1, PvCHI1 (Pteris vittata, UniProt A0A4Y6I0P5); assay: HPLC product analysis
T1 sequence (A0A4Y6I0P5 1-214): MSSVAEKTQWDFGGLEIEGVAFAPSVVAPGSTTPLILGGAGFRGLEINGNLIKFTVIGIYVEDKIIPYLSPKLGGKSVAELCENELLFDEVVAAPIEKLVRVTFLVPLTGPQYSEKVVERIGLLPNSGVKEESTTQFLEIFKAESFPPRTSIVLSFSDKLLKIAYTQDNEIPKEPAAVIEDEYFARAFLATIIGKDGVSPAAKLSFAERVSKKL

AdcCHI1 = molecular target: T2, AdcCHI1 (Adiantum caudatum, UniProt A0A4Y6I1H0); assay: HPLC product analysis
T2 sequence (A0A4Y6I1H0 1-214): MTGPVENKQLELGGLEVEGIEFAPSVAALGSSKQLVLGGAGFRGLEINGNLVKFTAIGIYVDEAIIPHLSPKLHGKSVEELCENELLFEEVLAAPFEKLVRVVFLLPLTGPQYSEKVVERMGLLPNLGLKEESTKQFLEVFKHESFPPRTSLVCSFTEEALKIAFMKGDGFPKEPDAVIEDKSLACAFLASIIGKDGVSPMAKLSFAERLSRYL

HaCHI1 = molecular target: T3, HaCHI1 (Haplopteris amboinensis, UniProt A0A4Y6I1E6); assay: HPLC product analysis
T3 sequence (A0A4Y6I1E6 1-214): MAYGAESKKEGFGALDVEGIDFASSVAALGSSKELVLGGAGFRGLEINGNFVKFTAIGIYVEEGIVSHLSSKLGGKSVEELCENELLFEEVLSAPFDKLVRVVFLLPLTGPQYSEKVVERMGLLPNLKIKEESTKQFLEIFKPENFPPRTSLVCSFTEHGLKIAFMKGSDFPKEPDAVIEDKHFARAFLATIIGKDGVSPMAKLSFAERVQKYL

LoCHS1 = molecular target: T4, LoCHS1 (Lindsaea orbiculata, UniProt A0A4Y6I0N8); assay: LC-MS product analysis; conditions: 100 μM malonyl-CoA, 50 mM potassium phosphate pH 6.5, 35 °C, no CHIL
T4 sequence (A0A4Y6I0N8 1-405): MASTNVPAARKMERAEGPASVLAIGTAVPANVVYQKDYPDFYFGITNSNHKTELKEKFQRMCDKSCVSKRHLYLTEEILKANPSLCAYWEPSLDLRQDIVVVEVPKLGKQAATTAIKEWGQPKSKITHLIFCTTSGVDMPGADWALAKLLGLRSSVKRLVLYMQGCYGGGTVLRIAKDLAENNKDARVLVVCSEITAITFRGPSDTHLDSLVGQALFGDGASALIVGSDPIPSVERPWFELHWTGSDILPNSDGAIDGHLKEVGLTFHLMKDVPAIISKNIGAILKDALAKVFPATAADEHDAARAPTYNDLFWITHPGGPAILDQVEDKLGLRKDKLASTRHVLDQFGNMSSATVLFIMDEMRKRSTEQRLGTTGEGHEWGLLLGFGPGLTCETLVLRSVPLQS

LoCHS2 = molecular target: T5, LoCHS2 (Lindsaea orbiculata, UniProt A0A4Y6I0P0); assay: LC-MS product analysis; conditions: 100 μM malonyl-CoA, 50 mM potassium phosphate pH 6.5, 35 °C, no CHIL
T5 sequence (A0A4Y6I0P0 1-439): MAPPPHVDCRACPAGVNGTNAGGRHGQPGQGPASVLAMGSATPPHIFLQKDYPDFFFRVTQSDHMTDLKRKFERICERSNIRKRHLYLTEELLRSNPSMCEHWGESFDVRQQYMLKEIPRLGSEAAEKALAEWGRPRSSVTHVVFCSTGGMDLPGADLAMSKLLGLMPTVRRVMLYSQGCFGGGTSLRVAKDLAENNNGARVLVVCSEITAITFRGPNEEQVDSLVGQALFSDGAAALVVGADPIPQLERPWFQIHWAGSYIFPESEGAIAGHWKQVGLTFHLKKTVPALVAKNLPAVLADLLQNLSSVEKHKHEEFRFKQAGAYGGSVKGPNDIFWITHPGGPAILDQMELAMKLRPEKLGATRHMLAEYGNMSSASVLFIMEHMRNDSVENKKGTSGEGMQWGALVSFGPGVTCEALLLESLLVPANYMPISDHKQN

[1] = 50 μM substrate, 50 mM Tris-HCl pH 7.5, 25 °C

**Q.** `O=C(/C=C/c1ccc(O)cc1)c1ccc(O)cc1O` [isoliquiritigenin] was tested. Which HPLC product analysis (PvCHI1; [1]) did it give?
**A.** AcCHI1, AdcCHI1, AcaCHI1, HaCHI1, and PvCHI1 were all able to catalyze type II-specific substrates

**Q.** What about the HPLC product analysis (AdcCHI1; [1]) of the same molecule?
**A.** AcCHI1, AdcCHI1, AcaCHI1, HaCHI1, and PvCHI1 were all able to catalyze type II-specific substrates

**Q.** What about the HPLC product analysis (HaCHI1; [1]) of the same molecule?
**A.** AcCHI1, AdcCHI1, AcaCHI1, HaCHI1, and PvCHI1 were all able to catalyze type II-specific substrates

**Q.** For `O=C(/C=C/c1ccc(O)cc1)c1c(O)cc(O)cc1O` [naringenin chalcone], which HPLC product analysis (PvCHI1; room temperature, 1 min) is on record?
**A.** the other five (AcCHI1, AcaCHI1, AdcCHI1, HaCHI1, and PvCHI1) exhibited slight type II CHI activity

**Q.** And the HPLC product analysis (AdcCHI1; room temperature, 1 min)?
**A.** the other five (AcCHI1, AcaCHI1, AdcCHI1, HaCHI1, and PvCHI1) exhibited slight type II CHI activity

**Q.** And the HPLC product analysis (HaCHI1; room temperature, 1 min)?
**A.** the other five (AcCHI1, AcaCHI1, AdcCHI1, HaCHI1, and PvCHI1) exhibited slight type II CHI activity

**Q.** How did the LC-MS product analysis (LoCHS1) turn out when `CC(C)(COP(=O)(O)OP(=O)(O)OC[C@H]1O[C@@H](n2cnc3c(N)ncnc32)[C@H](O)[C@@H]1OP(=O)(O)O)[C@@H](O)C(=O)NCCC(=O)NCCSC(=O)/C=C/c1ccc(O)cc1` [p-coumaroyl-CoA] was run?
**A.** reactions were provided with p-coumaroyl-CoA and malonyl-CoA

**Q.** And the LC-MS product analysis (LoCHS2)?
**A.** reactions were provided with p-coumaroyl-CoA and malonyl-CoA
